This is an account of results in US20050228180A1, “Alpha, omega-dicarboximide derivatives as useful uro-selective a1a adrenoceptor blockers” (priority 2002, published 2005).

Where a name gives a salt, the structure may show the parent alone.

One assay concerns the target T1, α1A adrenoceptor (Rattus norvegicus, UniProt P43140).
T1 construct: from tissue; host or cells: rat submaxillary gland membranes
T1 sequence (P43140 1-466): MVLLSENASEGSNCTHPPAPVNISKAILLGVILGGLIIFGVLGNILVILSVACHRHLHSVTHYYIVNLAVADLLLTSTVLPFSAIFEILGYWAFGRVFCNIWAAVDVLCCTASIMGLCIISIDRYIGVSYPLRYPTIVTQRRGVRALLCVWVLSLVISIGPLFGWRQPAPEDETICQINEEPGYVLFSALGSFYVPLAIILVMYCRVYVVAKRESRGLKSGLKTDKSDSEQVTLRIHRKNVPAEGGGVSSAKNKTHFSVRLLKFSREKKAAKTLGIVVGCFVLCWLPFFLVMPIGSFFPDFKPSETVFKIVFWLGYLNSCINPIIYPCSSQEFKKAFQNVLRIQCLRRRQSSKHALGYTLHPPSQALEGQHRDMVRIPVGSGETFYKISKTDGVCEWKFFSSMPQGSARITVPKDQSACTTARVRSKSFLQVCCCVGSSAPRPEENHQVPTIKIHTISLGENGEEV
Put plainly: Radioligand binding, [3H] prazosin displacement, rat submaxillary membranes. In outline:
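Rat membranes (submaxillary for α1A, liver for α1B; 150-250 μg protein) incubated with [3H]prazosin and compound in Tris 50 mM/EDTA 5 mM pH 7.4, 1 h at 24-25° C. Nonspecific binding with 300 nM prazosin; filtration, counting; Ki via Cheng–Prusoff.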

The target in another assay is T2, α1D adrenoceptor (aorta) (Rattus norvegicus, UniProt P23944).
T2 construct: Isolated tissues were mounted in organ bath containing Krebs Henseleit buffer; from tissue; host or cells: isolated rat aorta
T2 sequence (P23944 1-561): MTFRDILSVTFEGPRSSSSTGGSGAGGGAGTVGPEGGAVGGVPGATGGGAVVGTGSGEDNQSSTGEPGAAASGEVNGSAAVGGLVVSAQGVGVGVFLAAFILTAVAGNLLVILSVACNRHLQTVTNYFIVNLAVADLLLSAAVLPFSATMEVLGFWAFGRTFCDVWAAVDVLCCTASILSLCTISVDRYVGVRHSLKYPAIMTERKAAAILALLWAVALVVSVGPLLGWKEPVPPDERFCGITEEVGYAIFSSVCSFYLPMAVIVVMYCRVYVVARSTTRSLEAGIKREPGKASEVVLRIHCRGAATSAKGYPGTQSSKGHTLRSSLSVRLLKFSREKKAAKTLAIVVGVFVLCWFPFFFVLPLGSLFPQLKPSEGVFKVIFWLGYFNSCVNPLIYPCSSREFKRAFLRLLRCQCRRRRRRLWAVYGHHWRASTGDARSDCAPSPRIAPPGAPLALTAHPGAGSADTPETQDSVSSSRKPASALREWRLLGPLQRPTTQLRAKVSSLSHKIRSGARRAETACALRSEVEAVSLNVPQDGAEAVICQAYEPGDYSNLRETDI
Put plainly: In vitro functional assay, isolated aorta, norepinephrine contraction. The assay is classed as cell-based. As to conditions: read-out: α Adrenoceptor Subtype (pKB) α1D (converted). A digest of the protocol: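 Rat aorta, spleen and prostate strips from urethane-anaesthetised male Wistar rats in Krebs-Henseleit at 37 °C (95% O2/5% CO2), 2 g or 1 g resting tension, 2 h equilibration. Norepinephrine (aorta) or phenylephrine (spleen, prostate) contraction curves run without and with compound at […]; antagonist affinity given as pKB.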

`CC(C)Oc1ccccc1N1CCN(CCCN2C(=O)C3CC(O)C(O)CC3C2=O)CC1` (stereo not drawn) [Compound No. 23, 2-[3-{4-(2-Isopropoxyphenyl)piperazin-1-yl}propyl]-5,6-dihydroxy-3a,4,5,6,7,7a, hexahydro-1H-isoindole-1,3(2H)-dione-hydrochloride]: at α1A adrenoceptor ([3H] prazosin displacement, rat submaxillary membranes, read-out: Affinity (Ki) α1A (Rat Submaxillary)), the Ki stood at 0.98 nM. The α1B/α1A at α1A adrenoceptor (ratio of binding affinities, rat liver / rat submaxillary) amounted to 130. Further, the Kb at α1D adrenoceptor (aorta) is 8.32 nM.

The term Ki denotes a measure of affinity in units of concentration, obtained from inhibition or displacement.
